Columns and labels:
urokinase = urokinase (Homo sapiens, UniProt P00749); assay: urokinase inhibitory activity in in vitro assays; format: biochemical; conditions: for urokinase inhibitory activity: in vitro assays
thrombin = conditions: in vitro assays

Structure (SMILES) | specific inhibitory activity toward urokinase (urokinase) | urokinase inhibitory activity (urokinase) | thrombin inhibitory activity (thrombin)
N=C(N)NCCCC(C=O)NC(=O)C1CCN1C(=O)C(CO)NS(=O)(=O)c1ccccc1.O=C(O)C(F)(F)F [Example 14, benzenesulfonyl-D-seryl-azetidyl-argininal, trifluoroacetate salt] | demonstrates specific inhibitory activity toward urokinase | shown to have urokinase inhibitory activity | –
N=C(N)NCCCC(C=O)NC(=O)CN1CCCC(NS(=O)(=O)Cc2ccccc2)C1=O (stereo not shown) [Example 8, Benzylsulfonamido-6Lactam-Gly-Argininal] | – | – | shown to have thrombin inhibitory activity
C[C@H](NC(=O)[C@@H](CO)NCCCc1ccccc1)C(=O)N[C@H](C=O)CCCNC(=N)N.O=C(O)C(F)(F)F [Example 26, N-alpha-(3-phenylpropyl)-D-seryl-alanyl-argininal, trifluoroacetate salt] | – | shown to have urokinase inhibitory activity | –

— US6787612B1, “Resin derivatization method and uses thereof” (Dendreon Corporation, priority 1998, dated 2004)
